How the values were obtained:
NIH-3T3 cells = experiment: In vitro cytotoxicity, methylene blue assay, I-CT-ABPs; assay type: cell-based, mouse; conditions: NIH-3T3, 10 μM, 48 hours
Experimental: In vitro Cytotoxicity Assays. Methylene Blue assays were performed in 96-well plates; NIH-3T3 cells (5×10^3 cells/well) were seeded in a 96-well plate one day before treatment. Cells were treated with indicated concentrations of targeted IABNs and non-targeted nanomaterials that were pre-dissolved in 0.1% DMSO in the culture medium. Cells were incubated for 24 h and 48 h and cells were fixed with 2.5% glutaraldehyde incubation for 10 min. Cells were washed with water and borate buffer (0.1M, pH=8.5), Cell number was determined by staining cells with the addition of 100 μl per well of 1% Methylene Blue in borate buffer, followed by incubation at room temperature for at least 1 hour. The stain was aspirated and the plates rinsed by immersion in water, followed by immersion in deionized water. The plates were air-dried and then the stain was released from cells by the addition of 200 μl/well 0.1 N HCl solutions. After 1 hour incubation at 37° C., the absorbance of each […] at 620 nm was determined on a Cytation 3 microplate reader.
Cytotoxicity study of the I-CT-ABPs, the toxic response to the systematically varied physico-chemical properties of successive PAMAM dendrimers. In vitro cytotoxicity of I-CT-ABPs to NIH-3T3 cell lines was investigated. Viability assay was performed for assessment of the cytotoxicity of each I-CT-ABP to the NIH-3T3 cell lines using the methylene blue method.

[1] = biological target: T1, Recombinant human Cathepsin L (Homo sapiens, UniProt P07711); experiment: Recombinant cathepsin labeling, competition assay, iodinated probes; assay type: biochemical; conditions: probe 2 hour, then GB123 30 minutes
T1 construct: made in house
T1 sequence (P07711 114-333): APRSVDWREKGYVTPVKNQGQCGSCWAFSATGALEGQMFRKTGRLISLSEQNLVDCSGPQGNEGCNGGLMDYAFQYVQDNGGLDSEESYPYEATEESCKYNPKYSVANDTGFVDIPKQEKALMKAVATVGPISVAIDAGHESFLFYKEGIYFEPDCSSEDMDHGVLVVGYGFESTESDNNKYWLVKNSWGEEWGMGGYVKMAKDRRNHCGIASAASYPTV
Experimental: (§1) Recombinant cathepsin labeling, competition assay: Recombinant human Cathepsin L (0.5 μg), Cathepsin B (0.5 μg) were incubated the indicated concentrations of targeted or control iodinated activity based probes (CT-ABP) in reaction buffer (50 mM acetate, 2 mM DTT and 5 mM MgCl2, pH 5.5) for 120 minutes at 37° C. After probe incubation, residual cathepsin activity was labeled with GB123 for 30 minutes. The reaction was stopped by addition of sample buffer ×4 (40% glycerol, 0.2 M Tris/HCl, pH 6.8, 20% beta-mercaptoethanol, 12% SDS and 0.4 mg/ml bromophenol blue). Samples were then boiled, separated on a 12.5% SDS gel and scanned for fluorescence by a Typhoon scanner FLA 9500 at excitation/emission wavelengths of 645/670 nm.
(§2) The biochemical evaluation of the new probes started with evaluation for their ability to bind recombinant human cathepsins B or Cathepsin L. Recombinant human cathepsins B was incubated with increasing concentrations of the probes for 2 hour. Residual activity was detected by a fluorescently labeled cathepsin ABP GB 123 that was added to samples for 30 minutes at r.t. […] Next, residual cathepsins activity was labeled by GB123 1 μM during 2 hours. Cell lysates were separated on SDS-PAGE followed by scanning the gel for fluorescence to visualize labeling of residual cathepsins activity by GB123 (FIGS. 11C and 11F).
(§3) Recombinant human cathepsins B was incubated with increasing concentrations of the probes for 2 hour. Residual activity was detected by a fluorescently labeled cathepsin ABP that was added to samples for 30 minutes at r.t. The free probe was separated from the enzyme-probe complex by SDS PAGE, the detection of the probe-enzyme complex was done by a fluorescent scanning of the gel at Cy5 fluorescence, FIG. 12. […] To assure that the binding is dependent on protease activity, a control were performed HG87, HG94 and HG97 lacking the reactive moiety. […] Evaluation of I-CT-ABPs in intact cells. […] Next, residual cathepsins activity was labeled by GB123 1 μM during 2 hours. Cell lysates were separated on SDS-PAGE followed by scanning the gel for fluorescence at: 645/670 nm to visualize labeling of residual cathepsins activity by GB123 (FIG. 12E). […] Recombinant human cathepsins B was incubated with increasing concentrations of the Cy5 labelled probes for 2 hour. The free probe was separated from the enzyme-probe complex by SDS PAGE, the detection of the probe-enzyme complex was done by a fluorescent scanning of the gel at Cy5 fluorescence. […] The binding of the all the Cy5 labelled probes occur in an activity-dependent manner. Direct labeling in intact cells. The assay was carried out by incubation of NIH-3T3 cells with Cy5 labelled iodine tagged probes for 24 hours. Cell lysates were separated on SDS-PAGE followed by scanning the gel for fluorescence at: 645/670 nm to visualize labeling of residual cathepsins activity by GB123. […] For the PEGylated I-CT-ABP HG93 and HG32 also observed that recombinant cathepsin activity and cell permeability, it's difficult to quantify the selective inhibition due to enhanced permeation and retention (EPR) effect.

[2] = biological target: T2, Recombinant human Cathepsin B (Homo sapiens, UniProt P07858); experiment: as above; assay type: biochemical; conditions: probe 2 hour, then GB123 30 minutes
T2 construct: made in house
Experimental: as §1, §2, §3

Substance | toxicity (viability assay) (NIH-3T3 cells) | binding to recombinant cathepsin L, competitive assay [1] | binding to recombinant cathepsin B, competitive assay [2]
(IPA)16(NH2)16-G3 [HG87] | slight toxicity | no inhibition was detected | no inhibition was detected
(IPA)16(PEG-4)16-G3 [HG94] |  | no inhibition was detected | no inhibition was detected
(IPA)16(PEG-750)16-G3 [HG97] |  | no inhibition was detected | no inhibition was detected

From patent US11344634B2, “Activity based probe and uses thereof for imaging” (Yissum Research Development Company of the Hebrew …, priority 2016, dated 2022)
